Measurements from ChEMBL document CHEMBL5338711, “Designing and development of phthalimides as potent anti-tubulin hybrid molecules against malaria” (Eur J Med Chem, 2022).
pIC50, pKd: −log10 of the molar value. Activity calls are given as the source filed them. The rule behind the calls is not given here.

Tests used:
[1] = tested on: Plasmodium falciparum; assay: Antimalarial activity against […] infected in human RBC assessed as inhibition of plasmodial growth at 1 uM by SYBR green dye based spectrofluorometric analysis relative to control; format: functional; conditions: 3D7, Erythrocyte
[2] = tested on: Plasmodium falciparum; assay: Antimalarial activity against […] infected in human RBC assessed as inhibition of plasmodial growth at 10 uM by SYBR green dye based spectrofluorometric analysis relative to control; format: functional; conditions: 3D7, Erythrocyte
[3] = tested on: Plasmodium falciparum; assay: Antiplasmodial activity against […] incubated for 90 hrs by SYBR green I dye based analysis; format: functional, organism-based; conditions: 3D7, 90 h
[4] = Cytotoxicity against human U-937 cells assessed as reduction in cell viability incubated for 24 hrs by MTT assay; format: toxicity, cell-based
[5] = tested on: Plasmodium falciparum; assay: Antiplasmodial activity against Plasmodium falciparum 3D7; format: functional, organism-based
[6] = Cytotoxicity against human HepG2 cells; format: toxicity, cell-based
[7] = tested on: Plasmodium falciparum; assay: Antimalarial activity against chloroquine-sensitive synchronized late stage trophozoite Plasmodium falciparum 3D7 infected in human RBC assessed as inhibition of plasmodial growth by giemsa staining based analysis; format: functional, organism-based; conditions: 3D7, Erythrocyte
[8] = tested on: Plasmodium falciparum; assay: Antimalarial activity against chloroquine-resistant synchronized late stage trophozoite Plasmodium falciparum RKL-9 infected in human RBC assessed as inhibition of plasmodial growth by giemsa staining based analysis; format: functional, organism-based; conditions: RKL-9, Erythrocyte
[9] = tested on: Plasmodium falciparum; assay: Antimalarial activity against chloroquine-resistant Plasmodium falciparum RKL-9 infected in human RBC assessed as reduction of plasmodial growth by SYBR green dye based spectrofluorometric analysis; format: functional, organism-based
[10] = tested on: Erythrocyte; assay: Hemolytic activity in human RBC assessed as hemolysis upto 5 uM incubated for 2 hrs; format: toxicity, cell-based
[11] = Therapeutic index, ratio of CC50 for human HepG2 cells to IC50 for chloroquine-sensitive synchronized late stage trophozoite Plasmodium falciparum 3D7 infected in human RBC; format: toxicity; conditions: read-out: TI
[12] = Cytotoxicity against […] cell upto 500 uM; format: toxicity, cell-based; conditions: human
[13] = tested on: Plasmodium falciparum; assay: (§1) Antiplasmodial activity against synchronized ring stage Plasmodium falciparum 3D7 infected in human RBC assessed as reduction in parasitemia percentage by measuring defect in invasion stage at IC50 concentration measured after 60 hrs by giemsa staining based light microscopic analysis; format: functional, organism-based
[14] = tested on: Plasmodium falciparum; assay: Antiplasmodial activity against synchronized ring stage Plasmodium falciparum 3D7 infected in human RBC assessed as reduction in parasitemia percentage by measuring defect in egress stage at IC50 concentration measured after 60 hrs by giemsa staining based light microscopic analysis; format: functional, organism-based
[15] = tested on: Plasmodium falciparum; assay: Induction of mitochondrial membrane depolarization in trophozoite stage Plasmodium falciparum 3D7 infected in human RBC assessed as increase in green fluorescence at IC50 concentration incubated for 3 hrs by JC-1 dye based fluorescence microscopic analysis; format: functional, organism-based
[16] = tested on: Plasmodium falciparum; assay: Induction of mitochondrial membrane depolarization in trophozoite stage Plasmodium falciparum 3D7 infected in human RBC assessed as decrease in red to green fluorescence ratio at IC50 concentration incubated for 3 hrs by JC-1 dye based fluorescence microscopic analysis; format: functional, organism-based
[17] = tested on: Plasmodium falciparum; assay: Induction of mitochondrial membrane depolarization in trophozoite stage Plasmodium falciparum 3D7 infected in human RBC assessed as red to green fluorescence ratio at IC50 concentration incubated for 3 hrs by JC-1 dye based spectrofluorometric analysis (reference value: 6.96+/-0.94); format: functional
[18] = tested on: Plasmodium falciparum; assay: Synergistic antimalarial activity against synchronized ring stage Plasmodium falciparum 3D7 infected in human RBC assessed as mean fractional inhibitory concentration at 2:3 ratio of ART to compound incubated for 72 hrs by giemsa staining based flow cytometric analysis; format: functional
[19] = tested on: Plasmodium falciparum; assay: Synergistic antimalarial activity against synchronized ring stage Plasmodium falciparum 3D7 infected in human RBC assessed as mean fractional inhibitory concentration at 1:4 ratio of ART to compound incubated for 72 hrs by giemsa staining based flow cytometric analysis; format: functional
[20] = tested on: Plasmodium falciparum; assay: Binding affinity to recombinant N-terminal 6His tagged Plasmodium falciparum alpha-1 tubulin expressed in Escherichia coli BL21 assessed as dissociation constant at 0.78 to 75 uM by SPR analysis; conditions: dose 0.78-75 µM
[21] = tested on: Plasmodium falciparum; assay: Binding affinity to recombinant N-terminal 6His tagged Plasmodium falciparum beta-tubulin expressed in Escherichia coli BL21 at 0.78 to 75 uM by SPR analysis; conditions: dose 0.78-75 µM
[22] = tested on: Plasmodium falciparum; assay: Binding affinity to recombinant N-terminal 6His tagged Plasmodium falciparum alpha-1 tubulin expressed in Escherichia coli BL21 assessed as thermo-stabilization incubated at 4 to 80 degreeC for 3 mins followed by 5 mins incubation at room temperature by thermal shift assay; conditions: time 8.0 min
[23] = tested on: Plasmodium berghei; assay: Antimalarial activity against Plasmodium berghei ANKA in BALB/c mouse injected with parasite infected erythrocytes assessed as decrease in parasite load at 30 mg/kg, ip administered daily for 7 days relative to control; format: functional; design: scale not given: the % may be the effect or the level left; conditions: time 7 day
[24] = tested on: Plasmodium berghei; assay: Antimalarial activity against Plasmodium berghei ANKA in BALB/c mouse injected with parasite infected erythrocytes assessed as reduction in parasitemia at 30 mg/kg, ip administered daily for 7 days and measured after 15 days; format: functional, organism-based; conditions: time 15.0 day
[25] = tested on: Plasmodium berghei; assay: Antimalarial activity against Plasmodium berghei ANKA in BALB/c mouse injected with parasite infected erythrocytes assessed as […] mean survival time at 30 mg/kg, ip administered daily for 7 days and measured after 15 days; format: functional; conditions: time 15 day
[26] = tested on: Plasmodium falciparum; assay: Antiplasmodial activity against synchronized ring stage Plasmodium falciparum 3D7 infected in human RBC assessed as defect in invasion stage by measuring merozoites sticking on the red blood cell surface at IC50 concentration measured after 60 hrs by giemsa staining based light microscopic analysis; format: functional, organism-based
[27] = Binding affinity to recombinant N-terminal 6His tagged Plasmodium falciparum alpha-1 tubulin expressed in Escherichia coli BL21 assessed as dissociation constant by SPR analysis
[28] = tested on: Plasmodium falciparum; assay: as §1, with “transformation into pyknotic trophozoites” for “parasitemia percentage”, “delay” for “defect”, “ring maturation” for “invasion stage”; format: functional, organism-based
[29] = tested on: Plasmodium falciparum; assay: Synergistic antimalarial activity against synchronized ring stage Plasmodium falciparum 3D7 infected in human RBC assessed as mean fractional inhibitory concentration at 1:1 ratio of ART to compound incubated for 72 hrs by giemsa staining based flow cytometric analysis; format: functional

Question: Which results are given for `Cc1ccc2c(c1)C(=O)N([C@H](CC(C)C)c1nc3ccccc3n1Cc1cn(-c3ccc(C(F)(F)F)cc3)nn1)C2=O`?
Answer: inhibition at 1 µM [1]: 37%; inhibition at 10 µM [2]: 75%

Question: With `CC(C)C(c1nc2ccccc2n1Cc1cn(-c2ccc(F)cc2)nn1)N1C(=O)c2ccccc2C1=O` (configuration not stated) as the molecule, how does the pIC50 [3] read?
Answer: Its pIC50 is 5.46.

Question: What about the CC50 at 24 h [4] of the same molecule?
Answer: The CC50 at 24 h was 0.78 µM.

Question: For `CC(C)[C@H](c1nc2ccccc2n1Cc1cn(-c2ccc(F)cc2F)nn1)N1C(=O)c2ccccc2C1=O`, which inhibition at 1 µM [1] is on record?
Answer: Its inhibition at 1 µM is -12%.

Question: And the inhibition at 10 µM [2]?
Answer: The inhibition at 10 µM was 88%.

Question: Which inhibition at 1 µM [1] does the source give for `CCC(C)[C@H](c1nc2ccccc2n1Cc1cn(-c2ccccc2F)nn1)N1C(=O)c2ccc(C)cc2C1=O` (some centres not stated) here?
Answer: The inhibition at 1 µM was -23%.

Question: And the inhibition at 10 µM [2]?
Answer: Its inhibition at 10 µM is 91%.

Question: Which results are given for `Cc1ccc2c(c1)C(=O)N([C@H](CC(C)C)c1nc3ccccc3n1Cc1cn(-c3ccc(Cl)cc3)nn1)C2=O`?
Answer: pIC50 [5]: 6.19; pIC50 [6]: < 4.00; inhibition at 1 µM [1]: 43%; inhibition at 10 µM [2]: 73%; pIC50 [7]: 6.13; pIC50 [8]: 5.77; Activity [9]: Dose dependent effect; Activity [10]: Non-Toxic; selectivity ratio [11]: > 135; Activity [12]: Non-Toxic; Activity [13]: Active; Activity [14]: Active; Activity [15]: Active; Activity [16]: Active; Activity [17]: 4.62; FIC [18]: 0.87; FIC [19]: 0.98; Activity [20]: inactive; Activity [21]: inactive; Activity [22]: Active; Activity [23]: 3.6%; Activity [24]: Active; MST [25]: 11.07 days

Question: Which inhibition at 1 µM [1] does the source give for `Cc1ccc2c(c1)C(=O)N([C@H](CC(C)C)c1nc3ccccc3n1Cc1cn(-c3ccc(F)cc3)nn1)C2=O` here?
Answer: The inhibition at 1 µM was 0.3%.

Question: And the inhibition at 10 µM [2]?
Answer: Its inhibition at 10 µM is 46%.

Question: For `COc1ccc(-n2cc(Cn3c([C@@H](CC(C)C)N4C(=O)c5ccc(C)cc5C4=O)nc4ccccc43)nn2)cc1`, which inhibition at 1 µM [1] is on record?
Answer: Its inhibition at 1 µM is -43%.

Question: And the inhibition at 10 µM [2]?
Answer: Its inhibition at 10 µM is 65%.

Question: With `Cc1ccc(-n2cc(Cn3c([C@@H](CC(C)C)N4C(=O)c5ccc(C)cc5C4=O)nc4ccccc43)nn2)cc1` as the molecule, how does the inhibition at 1 µM [1] read?
Answer: Its inhibition at 1 µM is -8.63%.

Question: What about the inhibition at 10 µM [2] of the same molecule?
Answer: The inhibition at 10 µM was 68.9%.

Question: With `Cc1ccc2c(c1)C(=O)N([C@H](CC(C)C)c1nc3ccccc3n1Cc1c[nH]nn1)C2=O` as the molecule, how does the inhibition at 1 µM [1] read?
Answer: The inhibition at 1 µM was -64%.

Question: And the inhibition at 10 µM [2]?
Answer: Its inhibition at 10 µM is 71%.

Question: With `CCC(C)[C@H](c1nc2ccccc2n1Cc1cn(-c2ccc(C(F)(F)F)cc2)nn1)N1C(=O)c2ccccc2C1=O` (some centres not stated) as the molecule, how does the pIC50 [6] read?
Answer: The pIC50 was under 4.00.

Question: What about the inhibition at 1 µM [1] of the same molecule?
Answer: Its inhibition at 1 µM is 45%.

Question: And the inhibition at 10 µM [2]?
Answer: The inhibition at 10 µM was 68%.

Question: What about the pIC50 [7] of the same molecule?
Answer: The pIC50 was 6.19.

Question: And the pIC50 [8]?
Answer: The pIC50 was 5.79.

Question: And the Activity [9]?
Answer: Its Activity is “Dose dependent effect”.

Question: And the Activity [10]?
Answer: Its Activity is “Non-Toxic”.

Question: And the selectivity ratio [11]?
Answer: Its selectivity ratio is 156.

Question: And the Activity [12]?
Answer: The Activity was “Non-Toxic”.

Question: And the Activity [26]?
Answer: Its Activity is “Active”.

Question: And the Activity [15]?
Answer: Its Activity is “Active”.

Question: What about the Activity [16] of the same molecule?
Answer: The Activity was “Active”.

Question: And the Activity [17]?
Answer: Its Activity is 4.61.

Question: What about the FIC [18] of the same molecule?
Answer: The FIC was 0.86.

Question: And the FIC [19]?
Answer: The FIC was 0.67.

Question: What about the pKd [27] of the same molecule?
Answer: Its pKd is 4.58.

Question: What about the Activity [21] of the same molecule?
Answer: Its Activity is “inactive”.

Question: And the Activity [22]?
Answer: The Activity was “Active”.

Question: What about the Activity [23] of the same molecule?
Answer: The Activity was 2.1%.

Question: And the Activity [24]?
Answer: The Activity was “Active”.

Question: And the MST [25]?
Answer: Its MST is 11.42 days.

Question: What does the source list for `CC(C)[C@H](c1nc2ccccc2n1Cc1cn(-c2ccc(C(F)(F)F)cc2)nn1)N1C(=O)c2ccccc2C1=O`?
Answer: pIC50 [6]: < 4.00; inhibition at 1 µM [1]: 22%; inhibition at 10 µM [2]: 75%; pIC50 [7]: 5.64; pIC50 [8]: 5.41; Activity [9]: Dose dependent effect; Activity [10]: Non-Toxic; selectivity ratio [11]: 43; Activity [12]: Non-Toxic; Activity [28]: Active; Activity [15]: Active; Activity [16]: Active; Activity [17]: 5.06; FIC [29]: 0.93; Activity [23]: 3.9%; Activity [24]: Active; MST [25]: 10.47 days
